Molecules are shown by their SMILES. Some results are limits rather than exact numbers.

The target of this assay is T1, human EP2 (PTGER2) (Homo sapiens, UniProt P43116).
T1 construct: Cayman Chemical (Human EP2 Reporter Assay Kit)
T1 sequence (P43116 whole entry): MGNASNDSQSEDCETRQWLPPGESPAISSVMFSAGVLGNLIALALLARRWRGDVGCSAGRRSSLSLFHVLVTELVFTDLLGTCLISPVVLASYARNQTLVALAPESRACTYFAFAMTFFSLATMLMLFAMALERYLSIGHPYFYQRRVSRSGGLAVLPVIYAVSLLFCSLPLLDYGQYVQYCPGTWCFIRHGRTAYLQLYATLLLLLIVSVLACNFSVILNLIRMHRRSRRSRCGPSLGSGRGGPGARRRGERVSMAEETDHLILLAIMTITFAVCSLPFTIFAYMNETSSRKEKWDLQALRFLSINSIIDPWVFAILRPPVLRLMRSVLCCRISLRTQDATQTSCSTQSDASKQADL
As to the kind of experiment: EP2 antagonist assay (HEK-293 CNG membrane potential cAMP assay / 293T SEAP reporter assay, PGE2-stimulated). To be noted: EP2 antagonist activity; concentration for 50% inhibition of signal compared to DMSO. It counts as cell-based. The text has this:
1. The HEK-293 CNG (Cyclic Nucleotide Gated) cell line expressing a modified CNG channel that leads to cell membrane depolarization in response to elevated intracellular cAMP levels, which can be measured using a fluorescent membrane potential dye, was engineered to express human EP2 (PTGER2) or EP4 (EP4R). The resulting cell line ACTOne™ PTGER2 or ACTOne™ EP4R as well as the fluorescent membrane potential dye were purchased from eEnzyme (Gaithersburg, MD, US) and used in this assay. Briefly, cells were plated at 1.2×10^4 cells/well in 20 μL DMEM supplemented with 2% Fetal Bovine Serum (FBS, VWR International), 1x Penicillin/Streptomycin (GenClone), 0.2 μg/mL puromycin (InvivoGen) and 50 μg/mL G418 (InvivoGen) on a 384 well plate (Greiner). The next day, cells were dye-loaded with 20 μL/well of 1x Dye-loading solution (eENZYME) following the manufacturer's instruction. After 2 hours of incubation at room temperature (RT) in the dark, a pre-read was made to obtain the background signals using CLARIOstar plate reader (BMG LABTECH, Germany) with the following filter settings: excitation=530/20 nm, emission=590/20 nm. Next, a serial dilution of compound (plus a DMSO control) were added to the plate (5 μL/well) and the reaction was incubated at RT for 15 min before adding 5 μL of PGE2 to every well for a final concentration of 5 nM. All wells were duplicated. The plate was then further incubated at RT for 30 min prior to a final read with the same machine settings. Background-subtracted signals were used to calculate IC50 values.
2. Human EP2 and EP4 Reporter Assay Kits were purchased from Cayman Chemical (Ann Arbor, MI, USA). The assay was performed following the provided User Manual. Briefly, a reverse transfection was performed by seeding 6.0×10^4 of 293T cells (ATCC) to each well of the provided Strip Plate coated with a proprietary transfection complex containing DNA constructs for expressing human EP2 or EP4 and a cAMP response element regulated secreted alkaline phosphatase (SEAP) reporter, in 200 μL DMEM supplemented with 2% FBS and incubated for 20-24 hours at 37° C. with 5% CO2. After the incubation, the culture medium was carefully removed, and the cells were replenished with 150 μL pre-warmed serum-free medium. PGE2 and test compounds were prepared together at 4x the desired final concentration, and 50 μL was added to each assigned well with the final concentration of 13 nM and 2 nM PGE2 for EP2 and EP4 assay, respectively. After 6-8 hours of incubation, 10 μL media from each well was transferred to corresponding well of a new plate, which was then sealed and incubated at 65° C. for 30 min. The plate was then cooled down to RT and 50 μL SEAP substrate was added to each well. Luminescence signal was measured using a CLARIOstar plate reader.
The IC50 value was determined as the concentration for 50% inhibition of signal compared to DMSO (A: IC50 […]; B: IC50 between 100 nM and 1,000 nM; C: IC50≥1,000 nM).
(Cyclic AMP is a second messenger, typically raised through Gs and lowered through Gi signalling.)
`Cc1ccccc1-c1cc(C(=O)NCc2ccc(C(=O)O)cc2)c2c(ccn2Cc2ccc(C(F)(F)F)cc2)c1` [Example 92, 4-((5-(o-tolyl)-1-(4-(trifluoromethyl)benzyl)-1H-indole-7-carboxamido)methyl)benzoic acid]: the IC50 – broadly, the concentration that gives 50% inhibition – is less than 0.1 µM.
Turning to `O=C(O)c1ccc(CNC(=O)c2cc(-c3ccc(F)c(F)c3)cc3cnn(Cc4ccc5ccccc5c4)c23)cc1` [Example 218, 4-((5-(3,4-difluorophenyl)-1-(naphthalen-2-ylmethyl)-1H-indazole-7-carboxamido)methyl)benzoic acid], the IC50 is less than 0.1 µM.
With `O=C(O)c1ccc(C2(NC(=O)c3cc(-c4ccccc4)cc4cnn(Cc5cccc(C(F)(F)F)c5)c34)CC2)cc1` [Example 140, 4-(1-(5-phenyl-1-(3-(trifluoromethyl)benzyl)-1H-indazole-7-carboxamido)cyclopropyl)benzoic acid] the figure was 0.1 to 1 µM; with `C[C@H](NC(=O)c1cc(-c2ccccc2)cc2nnn(Cc3ccc(C(F)(F)F)cc3)c12)c1ccc(C(=O)O)cc1` [Example 179, (S)-4-(1-(5-phenyl-1-(4-(trifluoromethyl)benzyl)-1H-benzo[d][1,2,3]triazole-7-carboxamido)ethyl)benzoic acid], less than 0.1 µM; with `C[C@H](NC(=O)c1cc(-c2ccc(F)c(F)c2)cc2cnn(Cc3ccc(-c4ccc(F)cc4)cc3)c12)c1ccc(C(=O)O)cc1` [Example 205, (S)-4-(1-(5-(3,4-difluorophenyl)-1-((4′-fluoro-[1,1′-biphenyl]-4-yl)methyl)-1H-indazole-7-carboxamido)ethyl)benzoic acid], less than 0.1 µM.
`O=C(O)c1ccc(CNC(=O)c2cc(-c3ccc(F)cc3)cc3ccn(Cc4ccc5ccccc5n4)c23)cc1` [Example 142, 4-((5-(4-fluorophenyl)-1-(quinolin-2-ylmethyl)-1H-indole-7-carboxamido)methyl)benzoic acid] had an IC50 of less than 0.1 µM.
As for `O=C(O)c1ccc(CNC(=O)c2cc(-c3cc(F)cc(F)c3)cc3cnn(Cc4ccc(C(F)(F)F)cc4)c23)cc1` [Example 99, 4-((5-(3,5-difluorophenyl)-1-(4-(trifluoromethyl)benzyl)-1H-indazole-7-carboxamido)methyl)benzoic acid], the figure is less than 0.1 µM; as for `C[C@@H](NC(=O)c1cc(-c2ccccc2)cc2ccn(Cc3ccc(C(F)(F)F)cc3)c12)c1ccc(C(=O)O)cc1` [Example 4, (R)-4-(1-(5-phenyl-1-(4-(trifluoromethyl)benzyl)-1H-indole-7-carboxamido)ethyl)benzoic acid], no less than 1 µM.
For the molecule `O=C(O)c1ccc(C2(NC(=O)c3ccc(-c4ccccc4)c4ccn(Cc5ccc(C(F)(F)F)cc5)c34)CC2)cc1` [Example 36, 4-(1-(4-phenyl-1-(4-(trifluoromethyl)benzyl)-1H-indole-7-carboxamido)cyclopropyl)benzoic acid], the IC50 was no less than 1 µM.
As to `C[C@@H](NC(=O)c1cc(-c2cccc(C#N)c2)cc2ccn(Cc3ccc(C(F)(F)F)cc3)c12)c1ccc(C(=O)O)cc1` [Example 12, (R)-4-(1-(5-(3-cyanophenyl)-1-(4-(trifluoromethyl)benzyl)-1H-indole-7-carboxamido)ethyl) benzoic acid], the concentration for half-maximal inhibition (IC50) was no less than 1 µM.
Regarding `C[C@H](NC(=O)c1cc(-c2ccc(F)c(F)c2)cc2cnn(Cc3cccc(C(F)(F)F)c3)c12)c1ccc(C(=O)O)cc1` [Example 220, (S)-4-(1-(5-(3,4-difluorophenyl)-1-(3-(trifluoromethyl)benzyl)-1H-indazole-7-carboxamido)ethyl)benzoic acid], the half-inhibitory concentration (IC50) is less than 0.1 µM.
Regarding `C[C@H](NC(=O)c1cc(-c2cc(F)cc(F)c2)cc2ccn(Cc3cccc(C(F)(F)F)c3)c12)c1ccc(C(=O)O)cc1` [Example 130, (S)-4-(1-(5-(3,5-difluorophenyl)-1-(3-(trifluoromethyl)benzyl)-1H-indole-7-carboxamido)ethyl)benzoic acid], the IC50 is less than 0.1 µM.
Regarding `O=C(O)c1ccc(CNC(=O)c2cc(-c3ccccc3)cc3ccn(Cc4ccc5ccccc5c4)c23)cc1` [Example 159, 4-((1-(naphthalen-2-ylmethyl)-5-phenyl-1H-indole-7-carboxamido)methyl)benzoic acid], the IC50 was less than 0.1 µM.
As for `C[C@H](NC(=O)c1cc(-c2ccc(F)cc2)cc2ccn(Cc3ccc4ccccc4c3)c12)c1ccc(C(=O)O)cc1` [Example 163, (S)-4-(1-(5-(4-fluorophenyl)-1-(naphthalen-2-ylmethyl)-1H-indole-7-carboxamido)ethyl)benzoic acid], the figure is less than 0.1 µM; as for `O=C(O)c1ccc(CNC(=O)c2cc(-c3ccc(F)c(F)c3)cc3ccn(Cc4ccc(C(F)(F)F)cc4)c23)cc1` [Example 8, 4-((5-(3,4-difluorophenyl)-1-(4-(trifluoromethyl)benzyl)-1H-indole-7-carboxamido)methyl)benzoic acid], less than 0.1 µM; as for `N#Cc1cccc(-c2cc(C(=O)NCC34CC(C(=O)O)(C3)C4)c3c(Sc4ccc(C(F)(F)F)cc4)c[nH]c3c2)c1` [Example 119, 3-((6-(3-cyanophenyl)-3-((4-(trifluoromethyl)phenyl)thio)-1H-indole-4-carboxamido)methyl)bicyclo[1.1.1]pentane-1-carboxylic acid], 0.1 to 1 µM.
Molecule `O=C(O)c1ccc(CNC(=O)c2ccc(Nc3ccc(F)cc3)c3ccn(Cc4ccc5ccccc5c4)c23)cc1` [Example 183, ((4-((4-fluorophenyl)amino)-1-(naphthalen-2-ylmethyl)-1H-indole-7-carboxamido)methyl)benzoic acid] registered an IC50 of less than 0.1 µM.
On to `O=C(O)c1ccc(C2(NC(=O)c3cc(-c4cc(F)cc(C(F)(F)F)c4)cc4ccn(Cc5ccc(C(F)(F)F)cc5)c34)CC2)cc1` [Example 21, 4-(1-(5-(3-fluoro-5-(trifluoromethyl)phenyl)-1-(4-(trifluoromethyl)benzyl)-1H-indole-7-carboxamido)cyclopropyl)benzoic acid], for which the IC50 was in the range of 0.1 to 1 µM.
On to `O=C(O)c1ccc(C2(NC(=O)c3cc(Nc4ccccc4)cc4ccn(Cc5ccc(C(F)(F)F)cc5)c34)CC2)cc1` [Example 43, 4-(1-(5-(phenylamino)-1-(4-(trifluoromethyl)benzyl)-1H-indole-7-carboxamido)cyclopropyl)benzoic acid], for which the half-inhibitory concentration (IC50) is less than 0.1 µM.
For the molecule `O=C(O)c1ccc(CNC(=O)c2ccc(Nc3ccc(F)c(Cl)c3)c3ccn(Cc4ccc(C(F)(F)F)cc4)c23)cc1` [Example 70], the IC50 was less than 0.1 µM.
The molecule `O=C(O)c1ccc(CNC(=O)c2cc(-c3ccc(Cl)c(F)c3)cc3ccn(Cc4ccc(C(F)(F)F)cc4)c23)cc1` [Example 91, 4-((5-(4-chloro-3-fluorophenyl)-1-(4-(trifluoromethyl)benzyl)-1H-indole-7-carboxamido)methyl)benzoic] came in with an IC50 of less than 0.1 µM.
With `N#Cc1cccc(Nc2ccc(C(=O)NCc3ccc(C(=O)O)cc3)c3c2ccn3Cc2ccc(C(F)(F)F)cc2)c1` [Example 68, 4-((4-((3-cyanophenyl)amino)-1-(4-(trifluoromethyl)benzyl)-1H-indole-7-carboxamido)methyl)benzoic acid] the figure was less than 0.1 µM; with `C[C@@H](NC(=O)c1ccc(-c2ccccc2)c2ccn(Cc3ccc(C(F)(F)F)cc3)c12)c1ccc(C(=O)O)cc1` [Example 29, (R)-4-(1-(4-phenyl-1-(4-(trifluoromethyl)benzyl)-1H-indole-7-carboxamido)ethyl) benzoic acid], no less than 1 µM.
The molecule `COc1cccc(Cn2ccc3c(Nc4ccccc4)ccc(C(=O)NCc4ccc(C(=O)O)cc4)c32)c1` [Example 155, 4-((1-(3-methoxybenzyl)-4-(phenylamino)-1H-indole-7-carboxamido)methyl)benzoic acid] had an IC50 of less than 0.1 µM.
Consider `O=C(O)c1ccc(CNC(=O)c2ccc(Nc3cccc(F)c3)c3ccn(Cc4ccc(C(F)(F)F)cc4)c23)cc1` [Example 72, 4-((4-((3-fluorophenyl)amino)-1-(4-(trifluoromethyl)benzyl)-1H-indole-7-carboxamido)methyl)benzoic acid], for which the IC50 was less than 0.1 µM.
